Results from US4335244A, “Monolactate salts of 4'-(9-acridinylamino)methanesulfon-m-anisidide” (Bristol-Myers Company, priority 1980, dated 1982).
In brackets after ≈: the same amount, converted by molar mass. Several values for one entry are separate records, joined by “and”; a condition that tells them apart may be missing. Equal entries are not always repeated. Where two headings read alike, the source gives them in different places.

Assays:
physchem [1] = settings: sterile water
Experimental: (§1) (f) Stability: 15 mg salt was reconstituted with 10 ml sterile water.

[2] = for Time for which dilute solution remains clear (in words): dilute solutions (e.g. 3-5 mg/ml) of m-AMSA, no precipitation of salt; for Stability (in words): solid form and/or upon reconstitution with water; for Time for which reconstituted solution remained clear: room temperature
Experimental: as §1

physchem [3] = settings: water
[4] = Reconstitution with (sterile) water; assay type: physicochemical
Experimental: The crystalline m-AMSA monolactate hemiacetonate (10 mg) prepared according to Example 1 was dissolved in 0.5 ml sterile water in an 8.2 ml flint vial. The vial was lyophilized on a laboratory lyophilizer for 16 hours. Sterile water (0.5 ml) was added to the vial. A solution was obtained after two minutes of shaking.
2. For reconstitution, add a sufficient amount of sterile water for
injection to give a 5 mg/ml mAMSA activity solution. The reconstituted

[5] = pH of aqueous solution before lyophilization; assay type: physicochemical; settings: 180 mg in 24 ml sterile water
Experimental: m-AMSA DL-lactate acetone solvate (180 mg; prepared in Example 6) was dissolved in 24 ml sterile water with stirring. The resulting clear (pH 4.2) solution was passed through a 1 inch 0.45 micron Millipore filter. Two ml of the filtrate was placed in an 8.2 cc flint vial and the solution was lyophilized for 24 hours.

animal tumor systems = settings: Cain, et al., Europ. J. Cancer 10:539-549 (1974); cited from earlier work
[6] = cited from earlier work

COc1cc(NS(C)(=O)=O)ccc1Nc1c2ccccc2nc2ccccc12 [Example 1, L(+)-Monolactate Hemiacetonate of m-AMSA]
degraded at 336 h (physchem [1]): < 6% | Time for which reconstituted solution was stable ([2]; 15 mg salt reconstituted with 10 ml sterile water): at least 24 hours | Time for which dilute solution remains clear (in words) [2]: at least several hours | Stability (in words) [2]: excellent stability both in solid form and upon reconstitution with water | solubility (physchem [3]): 5 mg/mL (≈ 12.7 mM)

COc1cc(NS(C)(=O)=O)ccc1Nc1c2ccccc2nc2ccccc12 [Example 2, Lyophilized L(+)-Monolactate Hemiacetonate of m-AMSA]
Shaking time to obtain a solution on reconstitution of lyophilized product ([4]; 10 mg salt lyophilized, 0.5 ml sterile water): two

COc1cc(NS(C)(=O)=O)ccc1Nc1c2ccccc2nc2ccccc12 [Example 4, m-AMSA Mono DL-Lactate Acetone Solvate]
pH of solution [5]: 4.2 | Concentration of solution obtained on reconstitution with water [4]: 5000 to 7500 µg/mL | Concentration of reconstituted aqueous solution readily obtained ([4]; 3 minutes shaking at 75° F.): 5000 µg/mL and 7500 µg/mL and 10000 µg/mL | Concentration of solution obtained on reconstitution with water ([4]; listed as Example 5): 7500 µg/mL | Time for which aqueous solution remained clear ([2]; 5 mg/ml, room temperature (17° C.)): at least 16 hours | Time for which aqueous solution remained clear ([2]; 7.5 mg/ml, 17° C., listed as Example 5): at least 16 hours | Time for which reconstituted solution remained clear ([2]; 7.5 mg/ml): 24 h | Time for which reconstituted solution remained clear ([2]; 10 mg/ml): 24 h | Time for which reconstituted solution remained clear ([2]; 15 mg/ml): 6 h | Time for which reconstituted solution remains clear ([2]; 5-7.5 mg/ml, 17° C.): at least 6 hours | Time for which dilute solution remains clear (in words) [2]: at least several hours | Stability (in words) [2]: excellent stability both in solid form and upon reconstitution with water | solubility (physchem [3]; room temperature): 25 mg/mL

COc1cc(NS(C)(=O)=O)ccc1Nc1c2ccccc2nc2ccccc12 [Example 7]
Concentration of solution obtained on reconstitution with water [4]: 7500 µg/mL | Time for which aqueous solution remained clear ([2]; 7.5 mg/ml, 17° C.): at least 6 hours | Time for which shaken solution was clear ([2]; 7.5 mg/ml, low speed horizontal shaker): up to 5 hours

COc1cc(NS(C)(=O)=O)ccc1Nc1c2ccccc2nc2ccccc12 [Example 10, m-AMSA D(-)-Monolactate Hemiacetonate]
Time for which dilute solution remains clear (in words) [2]: at least several hours | Stability (in words) [2]: excellent stability both in solid form and upon reconstitution with water

COc1cc(NS(C)(=O)=O)ccc1Nc1c2ccccc2nc2ccccc12 [Example 11]
Concentration of solution obtainable on reconstitution with water (m-AMSA activity) ([4]; lyophilized solid, at least 3-5 mg/ml m-AMSA activity, procedure of Example 7 'if repeated'): 3000 to 5000 µg/mL

COc1cc(NS(C)(=O)=O)ccc1Nc1c2ccccc2nc2ccccc12 [m-AMSA, 4'-(9-acridinylamino)methanesulfon-m-anisidide]
Incompatibility of solutions with ions ([2]; chloride, sulfate and phosphate ions, insoluble salts form): incompatible with chloride, sulfate and phosphate | Antitumor activity in animal tumor systems (animal tumor systems): significant antitumor activity in animal tumor systems | Clinical evaluation result [6]: very promising initial results
